In patent publication EP0497299A1, “Decarestrictine and related compounds, process for their preparation and use” (HOECHST AKTIENGESELLSCHAFT, priority 1991, dated 1992):
pIC50: −log10 of the molar value.

System: Cholesterinbiosynthese
Test: Inhibition of cholesterol biosynthesis from 14C-acetate in HEP-G2 liver cell culture
Type: cell-based
Settings: Homo sapiens, HepG2, 3 h, HEP-G2-Zellen; for pIC50: (¹⁴C)Natriumacetat, standard preparations, read-out: IC₅₀; for inhibition at 0.01 µM: Konzentration von 10⁻⁸ mol/l, read-out: Hemmung der Cholesterinbiosynthese
Source text: 2. Die biologische Wirksamkeit der Verbindungen als Inhibitor an der Cholesterinbiosynthese läßt sich in vitro in Leberzellkulturen nachweisen.
Monolayer von HEP-G2-Zellen in lipoproteinfreiem Nährmedium werden mit entsprechenden Konzentrationen der zu prüfenden Substanzen der allgemeinen Formel I eine Stunde vorinkubiert. Nach Zugabe der ¹⁴C-markierten Biosynthesevorstufe (¹⁴C)Natriumacetat wird die Inkubation für 3 Stunden fortgesetzt. Danach wird ein Teil der Zellen alkalisch verseift, bei vorheriger Zugabe eines internen Standards von ³H-Cholesterin. Die Lipide der verseiften Zellen werden mit einem Gemisch aus Chloroform-Methanol extrahiert. Dieses Lipidgemisch wird nach Zusatz von Trägercholesterin präparativ dünnschichtchromatographisch aufgetrennt, die Cholesterinbande nach Anfärbung isoliert und die aus dem ¹⁴C-Precursor gebildete Menge ¹⁴C-Cholesterin szintigraphisch bestimmt. In einem aliquoten Teil der Zellen wurde Zellprotein bestimmt, so daß die in der Zelleinheit pro mg Zellprotein aus ¹⁴C-Präkusor gebildete Menge ¹⁴C-Cholesterins berechnet werden kann. Zum Vergleich für die Hemmwirkung eines zugesetzten Prüfpräparates dient die Kontrolle, so daß direkt die Hemmung der Cholesterinbiosynthese bei einer bestimmten molaren Konzentration des Prüfpräparates im Medium angegeben werden kann. In aliquoten Anteilen der Zellkultur wird die Intaktheit der Zellkultur und die fehlende Zellschädigung durch Präparateeinwirkung morphologisch (Lichtmikroskopie) beurteilt und biochemisch durch Bestimmung der Lactat-Dehydrogenase-Abgabe ins Inkubationsmedium gemessen.

Work on `CC[C@H](C)C(=O)O[C@H]1C[C@@H](C)C=C2C=C[C@H](C)[C@H](CC[C@@H]3C[C@@H](O)CC(=O)O3)[C@H]21` [Lovastatin] yielded a pIC50 of 7.64.
In the case of `COC(=O)CC1CC(O)C(C(O)CC(C)O)O1` (stereo not shown) [Formel 1.4], the inhibition at 0.01 µM was 38%.
For `COC(=O)C=C1CC(O)C(C(O)CC(C)O)O1` (stereo not shown) [Formel 1.5], the inhibition at 0.01 µM was 60%.
Work on `C[C@H](CCCC(C)(C)O)[C@H]1CC[C@H]2[C@@H]3CC=C4C[C@@H](O)CC[C@]4(C)[C@H]3CC[C@]12C` [25-Hydroxycholesterin] yielded a pIC50 of 6.64.
